Active and inactive are the calls of the source.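 How the source made its calls: active means maximal inhibition of the USP30 enzyme reaching 30% or more across the dose series; inactive means the rest.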
Each compound was assayed against Ubiquitin carboxyl-terminal hydrolase 30 (Homo sapiens) (UniProt Q70CQ3) (assay: ubiquitin-specific protease 30 DUB inhibitors, concentration-effect, biochemical, validation of primary actives (AID 1645865)). Conditions: purified USP30, Ub-rhodamine cleavage, fluorescence, 2 h.
Chain of Ubiquitin carboxyl-terminal hydrolase 30 (Homo sapiens) (Q70CQ3 whole entry, looked up): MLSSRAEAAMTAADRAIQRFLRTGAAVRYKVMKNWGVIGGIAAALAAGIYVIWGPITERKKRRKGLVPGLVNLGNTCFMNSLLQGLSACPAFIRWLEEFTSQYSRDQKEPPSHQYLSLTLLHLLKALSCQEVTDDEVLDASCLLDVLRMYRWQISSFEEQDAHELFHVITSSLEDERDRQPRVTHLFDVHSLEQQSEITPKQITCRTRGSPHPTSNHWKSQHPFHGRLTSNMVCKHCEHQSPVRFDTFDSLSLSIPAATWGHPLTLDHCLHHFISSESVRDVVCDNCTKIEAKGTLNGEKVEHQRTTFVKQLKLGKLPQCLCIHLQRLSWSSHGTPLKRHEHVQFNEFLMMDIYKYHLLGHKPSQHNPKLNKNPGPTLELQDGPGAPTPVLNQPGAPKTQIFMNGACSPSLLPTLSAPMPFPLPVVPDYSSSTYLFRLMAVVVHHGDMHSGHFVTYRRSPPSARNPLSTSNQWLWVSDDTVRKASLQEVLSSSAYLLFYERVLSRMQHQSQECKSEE
`O=C(COc1ccc(S(=O)(=O)N2CCOCC2)cc1)N1CCC(Cc2ccccc2)CC1` showed an IC50 of 49.5 µM.
`CSc1nc(SCC(N)=O)c2c3c(sc2n1)COC(C)(C)C3` gave an IC50 of 30.6 µM.
Work on `COc1ccc2c(C)c(CC(=O)N3CCC[C@H]3C(=O)O)c(=O)oc2c1C` yielded an IC50 of 45 µM.
Compound `O=C(COc1ccc2c(c1)CCC2)Nc1ccc2c(c1)CCC2` has an IC50 of 26.3 µM.
For `CC1(C)CC(=O)C2=C(C1)Nc1ccccc1N(C(=O)C(F)(F)F)C2c1cccs1` (centres undefined), the IC50 was > 50 µM (inactive).
In the case of `Cc1ccc(Nc2nc(Nc3cccc(F)c3)nc3nccnc23)c(C)c1`, the IC50 is reported as > 50 µM (inactive).
In the case of `COC1/C=C/OC2(C)Oc3c(C)c(O)c4c(c3C2=O)C(=O)C=C(NC(=O)/C(C)=C\C=C\C(C)C(O)C(C)C(O)C(C)C(OC(C)=O)C1C)C4=O` (centres undefined), the IC50 is reported as > 50 µM (inactive).
`Cc1cc(-c2nnc(SCC(=O)Nc3ccc(Br)c(C)c3)n2N)n[nH]1` showed an IC50 of 16.1 µM.
`CC1=C(C)C(c2c(-c3ccc(C)cc3)[nH]c3ccccc23)N(C(C)(C)C)C1=O` (centres undefined) showed an IC50 of 1.85 µM.
In the case of `CN[C@H]1CC2(CCN(C(=O)CCCn3cccn3)CC2)OC[C@]1(C)O`, the IC50 is reported as > 50 µM (inactive).
For `CCn1c(SCC(=O)N2c3ccccc3CC2C)nnc1-c1ccc2c(c1)OCCO2` (centres undefined), the IC50 was 23.2 µM.
With `CCc1cc(=O)n(CC(=O)Nc2cc(C)ccc2OC)c(N2CCOCC2)n1` the IC50 was 26 µM.
With `COc1ccc(-n2cc(C(=O)NCc3ccc4c(c3)OCO4)c3ccccc3c2=O)cc1` the IC50 was 31.9 µM.
In the case of `COc1ccc(NC(=O)c2nnn(-c3ccccc3F)c2C)cc1OC`, the IC50 is reported as > 50 µM (inactive).
For `NS(=O)(=O)c1cccc(NC(=O)CN2CCCc3ccccc32)c1`, the IC50 was > 50 µM (inactive).
`O=C(Nc1ccc2ccccc2n1)c1ccc(Cl)cc1` gave an IC50 of 2.08 µM.
`Nc1ccc(F)c(NS(=O)(=O)c2ccccc2)c1` was tested, and the IC50 was > 50 µM (inactive).
Compound `COc1ccc(CCN2COc3c(cc(Cl)c4cccnc34)C2)cc1OC` has an IC50 of 13.6 µM.
In the case of `COc1ccc(C(=O)NCC(c2ccc3c(c2)CCCN3C)N2CCCC2)cc1` (centres undefined), the IC50 is reported as > 50 µM (inactive).
Compound `Cc1ccc(C(=O)c2cn(CC(=O)Nc3ccccc3)c3ccc(C)cc3c2=O)cc1` has an IC50 of 4.45 µM.
`CCCN1CCN(C(=O)c2cc(NC(=O)C3CCC3)cc3nc(C)ccc23)CC1` was tested, and the IC50 was > 50 µM (inactive).
Work on `CC1CC[C@]2(NC1)O[C@H]1C[C@H]3[C@@H]4CC[C@H]5C[C@@H](O[C@@H]6O[C@H](CO)[C@H](O[C@@H]7O[C@H](CO)[C@@H](O)[C@H](O[C@@H]8OC[C@@H](O)[C@H](O)[C@H]8O)[C@H]7O[C@@H]7O[C@H](CO)[C@@H](O)[C@H](O)[C@H]7O)[C@H](O)[C@H]6O)CC[C@]5(C)[C@H]4CC[C@]3(C)[C@H]1[C@@H]2C` (some centres undefined) yielded an IC50 of 39.5 µM.
With `Cc1nc(-c2noc3ccc(C(=O)Nc4cccnc4)cc23)cs1` the IC50 was 14.6 µM.
`Cc1cc(C(F)(F)F)n(-c2ccc(NC(=O)Nc3cccc(C(F)(F)F)c3)cc2)n1` gave an IC50 of 8.68 µM.
In the case of `COC(=O)c1cc(C)sc1NC(=O)c1cccc(OC)c1OC`, the IC50 is reported as > 50 µM (inactive).
For `c1ccc2c(c1)CCc1c-2nc2ccccc2c1N1CCOCC1`, the IC50 was > 50 µM (inactive).
Work on `O=C(COc1ccc2c(-c3ccccc3)cc(=O)oc2c1)Nc1cccnc1` yielded an IC50 of 1.3 µM.
In the case of `O=C(/C=C/C=C/C=C/C1CCCCC1)NC1=C[C@@](O)(/C=C/C=C/C=C/C(=O)NC2=C(O)CCC2=O)[C@@H]2O[C@@H]2C1=O`, the IC50 is reported as > 50 µM (inactive).
In the case of `CCOc1ccc(-c2nc(C#N)c(N3CCN(C(=O)c4ccccc4C)CC3)o2)cc1`, the IC50 is reported as 2.62 µM.
`Cc1nn(Cc2ccccc2)c(Cl)c1C(=O)NC1CCCc2ccccc21` (centres undefined) was tested, and the IC50 was > 50 µM (inactive).
`CC(C)N1CC[C@@H]2[C@H](C1)CN2C(=O)Nc1cccc(F)c1` was tested, and the IC50 was > 50 µM (inactive).
`Cc1cccc(N2C(=O)/C(=C\c3ccc4c(c3)OCCO4)c3ccccc3C2=O)c1` was tested, and the IC50 was > 50 µM (inactive).
In the case of `Cc1cccc(C(=O)N2CCc3cc(-c4nc(NC(=O)CN5CCc6ccccc6C5)sc4C)ccc32)c1`, the IC50 is reported as > 50 µM (inactive).
With `CCOc1ccc(-c2cc3nc(C4CCN(C(=O)OC(C)(C)C)CC4)c(C(=O)Nc4cc(F)ccc4F)cn3n2)cc1` the IC50 was > 50 µM (inactive).
For `O=C(Cn1c(=O)n(Cc2ccc3c(c2)OCO3)c(=O)c2ncccc21)c1ccc(Cl)cc1`, the IC50 was 32.1 µM.
For `O=C(Nc1ccc2c(c1)OCCO2)C1CCN(C(=O)c2cc(-c3cccnc3)n[nH]2)CC1`, the IC50 was > 50 µM (inactive).
With `COc1cc(OC)c(NC(=O)Cn2c(=O)n(Cc3ccccc3Cl)c(=O)c3cc(OC)c(OC)cc32)cc1Cl` the IC50 was 2.28 µM.
With `O=C(Nc1ccccc1)c1ccc2c(c1)CC(c1ccccc1)OC2=O` (centres undefined) the IC50 was 7.72 µM.
Compound `Cc1cc(N2CCC(NC(=O)NCc3ccc(F)cc3)C2=O)ccc1F` (centres undefined) has an IC50 of 7.68 µM.
`Cc1cc(C(=O)N2CCOC3(CC=CCN(CCc4ccccc4)C3=O)C2)n2nccc2n1` (centres undefined) was tested, and the IC50 was > 50 µM (inactive).
Compound `COCCCNC(=O)c1ccc(Cn2c(=O)c3ccccc3n(CC(=O)Nc3ccc(OC)cc3)c2=O)cc1` has an IC50 of 23.9 µM.
`CCCC(=O)N1CCC2(CC1)Nc1ccccc1NC2=O` was tested, and the IC50 was > 50 µM (inactive).
In the case of `COc1cccc(-n2ccc(=O)c(-c3nc(-c4ccccc4Cl)no3)n2)c1`, the IC50 is reported as > 50 µM (inactive).
For `CC1=C(c2ccc(Cl)cc2)S(=O)(=O)NC1=NCC(=O)Nc1ccc(F)cc1`, the IC50 was 17 µM.
Compound `COc1ccccc1NC(=O)c1cc(-c2ccccn2)nc2ccccc12` has an IC50 of 16.5 µM.
In the case of `CO/C1=C\C(C)=C/[C@@H](C)[C@@H](O)[C@@H](C)C/C(C)=C/C=C/[C@H](OC)[C@@H]([C@@H](C)[C@@H](O)[C@H](C)[C@@]2(O)C[C@@H](OC(=O)/C=C/C(N)=O)[C@H](C)[C@@H](C(C)C)O2)OC1=O`, the IC50 is reported as > 50 µM (inactive).
`CSc1ccccc1C(=O)Nc1nc(-c2ccncc2)cs1` showed an IC50 of 23.3 µM.
`CCCn1c(=O)n(CC(=O)c2ccccc2F)c2c(C(N)=O)nc(-c3ccco3)nc21` was tested, and the IC50 was > 50 µM (inactive).
In the case of `CN(C)CCc1cc2c(c3c1ccc1ccccc13)OCO2`, the IC50 is reported as > 5 µM (inactive).
`O=C(c1cscn1)N1CCC2(CC1)CC1(CO2)Nc2ccccc2-n2cccc21` (centres undefined) was tested, and the IC50 was > 50 µM (inactive).
`O=C(COc1nsnc1N1CCOCC1)Nc1ccc(F)c(F)c1` was tested, and the IC50 was > 50 µM (inactive).
Compound `CC1CCCN(S(=O)(=O)c2cc3cc(F)ccc3oc2=O)C1` (centres undefined) has an IC50 of 21.6 µM.
With `CC(=O)O[C@H]1[C@]2(O)C[C@]34SS[C@](CO)(C(=O)N3[C@@H]2C[C@@]12O[C@@H](C)C(C)(C)C2=O)N(C)C4=O` the IC50 was 2.25 µM.
Work on `COc1cc2c(cc1OC)-c1cc(Nc3ccc(Br)cc3)nc(=O)n1CC2` yielded an IC50 of 0.939 µM.
`O=C(NCCc1ccccn1)c1cc(-c2ccc(Br)cc2)n[nH]1` gave an IC50 of 16.4 µM.
`COc1ccc(CCNC(=O)c2cn(-c3ccc(F)cc3)nn2)cc1OC` was tested, and the IC50 was 6.79 µM.
Work on `Cc1cccc(NC(=O)CSc2nnc(-c3n[nH]c4c3CCC4)n2N)c1C` yielded an IC50 of 20.2 µM.
With `CC(=O)Nc1ccc(S(=O)(=O)NCc2ccc(C(=O)NCCc3ccc(Cl)cc3)cc2)cc1` the IC50 was 1.71 µM.
With `O=C(Nc1cccc(-c2nc3ccccc3[nH]2)c1)c1cc2ccccc2oc1=O` the IC50 was 0.304 µM.
`O=C(NCc1cccnc1)c1cnn2c(C(F)(F)F)cc(-c3ccccc3)nc12` was tested, and the IC50 was > 50 µM (inactive).
In the case of `COc1ccc(-c2nc(C)c(C(=O)NCc3ccc(S(N)(=O)=O)cc3)s2)cc1`, the IC50 is reported as > 50 µM (inactive).
With `COc1cccc(NC(=O)c2ccc(-c3csc(C)n3)cc2)c1` the IC50 was > 50 µM (inactive).
In the case of `Cc1nc(-c2ccccc2F)sc1C(=O)Nc1cccnc1`, the IC50 is reported as > 50 µM (inactive).
Work on `Cc1ccc(-n2cc3c(N4CCCC(C(=O)NCC5CCCCC5)C4)ncnc3n2)cc1` (centres undefined) yielded an IC50 of 40.7 µM.
Compound `O=C(CSc1nnc(Cn2cnc3ccccc32)o1)Nc1ccc([N+](=O)[O-])cc1` has an IC50 of 19.3 µM.
For `O=C(Cn1cncc(-c2nc(-c3ccccc3)cs2)c1=O)NC1CCCC1`, the IC50 was 34.5 µM.
`O=C(CCCCn1c(=O)c2ccccc2n(Cc2ccccc2F)c1=O)NCCc1ccccc1` gave an IC50 of 8.13 µM.
`COc1ccc(CNc2nn3c(-c4cncc(OC)c4)cnc3s2)cc1` showed an IC50 of 1.5 µM.
`Cn1ccc2c(cc(C(=O)NCCC3=CCCCC3)n2C)c1=O` was tested, and the IC50 was > 50 µM (inactive).
In the case of `O=C(Nc1ccc(N2CCOCC2)cc1)c1ccc(-c2ccc(N3CCCC3)nn2)cc1`, the IC50 is reported as > 50 µM (inactive).
`CC(=O)Nc1ccc(O)c(-c2nc3cc(C)ccc3o2)c1` showed an IC50 of 3.99 µM.
`COc1ccc(CNC(=O)CCc2nc3sc4c(c3c(=O)[nH]2)CCCCC4)cc1` was tested, and the IC50 was > 50 µM (inactive).
For `COc1ccc(NC(=O)C2CC(=O)Nc3cc(-c4ccccc4)nn32)cc1` (centres undefined), the IC50 was 22.5 µM.
Work on `COc1ccc(CNC(=O)c2ccccc2N2C(=O)N3CCc4c([nH]c5ccccc45)[C@@]3(C)C2=O)cc1` yielded an IC50 of 27.3 µM.
Work on `O=C(COC(=O)c1ccc2[nH]c3c(c2c1)CCCC3)Nc1ccc2c(c1)OCO2` yielded an IC50 of 37.7 µM.
`Cc1ccc(-c2nc(Cn3cnc4ccccc4c3=O)cs2)cc1` gave an IC50 of 4.83 µM.
In the case of `O=c1c2c(ccn1Cc1cc(F)ccc1F)ccn2Cc1cccnc1`, the IC50 is reported as > 50 µM (inactive).
In the case of `Cc1sc(NC(=O)/C=C/c2ccco2)nc1-c1ccccc1`, the IC50 is reported as > 50 µM (inactive).
`O=C(CCc1nnc2n(Cc3ccccc3)c(=O)c3ccccc3n12)N1CCN(c2ccccn2)CC1` showed an IC50 of 2.29 µM.
`Cc1ccc(Cl)cc1NC(=O)c1cc(-c2ccccn2)n[nH]1` showed an IC50 of 6.42 µM.
`Cc1cc(C)cc(-n2ccnc(SCC(=O)Nc3cccc(Cl)c3)c2=O)c1` gave an IC50 of 7.47 µM.
With `O=c1[nH]c(C2CCN(S(=O)(=O)c3ccc(S(=O)(=O)NC4CCCCC4)cc3)CC2)nc2c1nnn2Cc1c(Cl)cccc1Cl` the IC50 was 12.1 µM.
For `Cc1ccccc1NC(=O)c1ccc(N2CCCCC2)nn1`, the IC50 was > 50 µM (inactive).
`c1csc(-c2nc(Nc3ccc4c(c3)CCC4)c3ccccc3n2)c1` showed an IC50 of 4.91 µM.
With `CC(=O)c1cccc(NC(=O)c2ccc3[nH]c4c(c3c2)CC(C)CC4)c1` (centres undefined) the IC50 was > 50 µM (inactive).
`CN(C)c1cccc(C(=O)Nc2cc(-c3cccnc3)no2)c1` gave an IC50 of 16.6 µM.
In the case of `CN1CC2CN(C(=O)c3ccc(F)cc3)CCN2Cc2ccccc21` (centres undefined), the IC50 is reported as > 50 µM (inactive).
In the case of `Cc1ccc(C(=O)NCc2ccc(C(=O)Nc3ccc(C)c(C)c3)o2)cc1`, the IC50 is reported as 21.4 µM.
Compound `N#Cc1c(N)nc2c(c1N)C(c1ccccc1)CO2` (centres undefined) has an IC50 of 42.8 µM.
`Cn1nc(-c2nc(-c3ccccc3)no2)c2c1CCN(C(=O)C1CC1)C2` was tested, and the IC50 was > 50 µM (inactive).
For `Cc1cccc(NC(=O)c2ccn(COc3ccc(F)cc3F)n2)c1C`, the IC50 was > 50 µM (inactive).
In the case of `O=C(Nc1cc(F)c2nc(N3CCOCC3)ccc2c1)c1ccc(Br)o1`, the IC50 is reported as > 50 µM (inactive).
`Cc1cc(=O)c2c(O)oc(O)c3c(O)cc(=O)c1c32` was tested, and the IC50 was > 50 µM (inactive).
For `CCOC(=O)c1cn(C2CC2)c2cc(N3CCNCC3)c([N+](=O)[O-])cc2c1=O`, the IC50 was > 50 µM (inactive).
